Results on 2 compounds are retold here after patent US20100278730A1, “Non-Invasive Molecular Imaging of Cellular Histone Deacetylase Substrate Using Magnetic Resonance Spectroscopy (MRS) or Positron Emission Tomography (PET)” (priority 2007, published 2010).

The nature of data set [1]: Toxicity study of Boc-lysine trifluoroacetic acid (BLT) in nude mice. To be noted: 100 mg/kg BLT i.p. in DMSO on days 1, 8, 15; male nude mice; vs DMSO-treated controls. In kind it is in vivo. As for the experimental part: Rationale: BLT must have no detectable toxic effects at levels that result in an MRS-visible signal in vivo if it were to be used as an imaging agent. To verify this, we monitored the toxicity of 100 mg/kg BLT (˜3 mM plasma concentration), which, based on previously published studies of fluorinated drugs, was expected to result in an MRS-detectable signal. (Hamstra, et al., Mol Ther, 10: 916-928, 2004; McSheehy, et al., Cancer Res, 60: 2122-2127, 2000; Gade, et al., Magn Reson Med, 52: 169-173, 2004; Chung, et al., Clin Cancer Res, 10:3863-3870, 2004; Aboagye, et al., Cancer Res, 58: 4075-4078, 1998).
Methods and Results: Four male nude mice were injected intraperitoneally with 100 mg/kg BLT in 40 μl of DMSO and 4 mice were injected with 40 μl of DMSO alone on days 1, 8, and 15 of the study. The mice were monitored daily for changes in weight, skin and hydration status, activity, behavior, feeding, and neurological status. On day 16, blood samples were collected, and blood counts and hepatic and kidney functions assessed (bilirubin, total protein, aspartate aminotransferase, alanine aminotransferase, creatinine, and blood urea nitrogen). At the end of the study, following animal euthanasia, mice were dissected and tissue samples obtained for histology (hematoxylin-eosin staining).

Data set [2] has as its system PC3 human prostate cancer cells tumor. Kind of data set: In vivo detection of HDAC inhibition by MRS in PC3 tumors (Example 3). Details: species or system mice. As for the experimental part:
Methods. 5×10^6 PC3 human prostate cancer cells suspended in matrigel were injected subcutaneously in male CD-1 nude mice (n=5). When an average tumor volume of 0.2 cm^3 was reached, mice were separated into 2 groups. The treated group (n=3) was treated daily with 50 mg/kg SAHA intraperitoneally, while the control mice were treated with carrier DMSO. MRS was performed on a 4.7T Biospec (Bruker Biospin, Billerica, Mass.) prior to treatment (day 0) and on days 2 and 7 of treatment, using a 1.5 cm (inner diameter) dual-tuned ^1H/^19F surface coil. […] BLT levels determined by ^19F MRS were normalized to the external reference aaa-trifluorotoluene (TFT) (Sigma-Aldrich Chemical Co., St. Louis, Mo.) in a micro-cell spherical bulb placed at a permanent location relative to the coil and expressed as % of maximum tumor BLT levels in each study. For each mouse and also for average values, a paired t-test of BLT evolution was performed for days 2 and 7 with respect to day 0. ^1H MRS data was analyzed by normalizing the tCho signal either to the total ^1H signal or to the internal water signal.

For data set [3], the system named is PC-3 tumor. Nature of the data set: 19F/31P/1H MRS of PC-3 tumors after BLT injection, with or without SAHA treatment (Example 2). Format: in vivo, mice. As for the experimental part: Methods and Results: PC-3 cells (10^6) were injected into the flank of male nude mice. MR experiments were first performed when tumors were ˜1 cm in diameter. Mice were anesthetized using isoflurane. A 10-mm home-built ^19F surface coil (milled from a polymer-based flexible substrate using a ProtoMat C100/HF (LPKF Laser & Electronics, Wilsonville, Oreg.)) was placed over the tumor, and the animal placed at the center of the magnet. Varacator diodes in the impedance matching circuitry provided a means to match and tune the coil from the console. Following localization, a T2-weighted image of the tumor was recorded using the RARE sequence (TE=45 ms, TR=2 s) via the ^19F surface coil tuned to ^1H. Localized shimming was performed using FASTMAP and achieved ˜20 Hz line width for the water peak. A localized ^1H spectrum was then acquired using a single-voxel PRESS sequence (TE=21 ms, TR=3 s, 96 scans) with VAPOR water suppression. Following retuning of the coil to ^19F, a ‘baseline’ ^19F spectrum was then acquired using a one-pulse sequence (45° flip angle, 300 scans, TR=1 s). A microsphere filled with 20 mM trifluorotoluene (−63.7 ppm) served as an external reference. 100 mg/kg BLT (in 40 μl DMSO) was then injected i.p. and sequential 5-minute ^19F spectra acquired over 90 minutes. The ^19F surface coil was then replaced with a ^31P coil and a spectrum acquired from the tumor region using a one-pulse sequence (30° flip angle, 900 scans, TR=2 s). Adequate SNR was achieved within 30 min.
Following 1 week of treatment, the MR study was repeated.

Data set [4] has as its system MB435 tumor xenografts. Nature of the data set: PET of [18F]-FAHA in MB435 tumor xenograft-bearing nude rats (second Example 4). In kind it is in vivo, rat. Particulars: blocking study, SAHA 50 mg/kg i.p. 1 hour prior; p<0.01 unpaired t test. As for the experimental part: Methods: [^18F]-FAHA was synthesized with high specific activity according to a method developed at M. D. Anderson Cancer Center. Human breast cancer cells, cell line MB435, grown as described in Example 3, were used to grow tumor xenografts in nude rats. Ten million cancer cells were injected subcutaneously in the neck area of six nude rats. When tumors were 1 cm in diameter, animals were anesthetized, injected with [^18F]-FAHA (37 MBq) and PET imaging was performed (dynamic) up to 60 min post-injection. Two days after the initial imaging, another PET imaging with [^18F]-FAHA was performed using a […] (SAHA). The animals were given SAHA (50 mg/kg) intraperitoneally 1 hour prior to injection of the radiotracer.

Data set [5] concerns HDAC activity in rat brain. Kind of data set: PET imaging of HDAC activity in rat brain using [18F]-FAHA (Example 6). To be noted: SAHA 50 mg/kg i.p. 1 hour prior; p<0.01 unpaired t test. In kind it is in vivo. The procedure: Methods: [^18F]-FAHA was synthesized according to the methods developed in our laboratory in high specific activity. Imaging studies with [^18F]-FAHA were conducted in five rats using a PET scanner under isoflurane inhalation anesthesia. The animals were injected intravenously with 37 MBq of [^18F]-FAHA and dynamic scanning PET (0-60 min) was performed. During the imaging session, the rats were anesthetized with 1-1.5 vol % isoflurane/oxygen inhalation and continuously heated with a heating lamp. Two days after the initial study, another PET imaging was performed with [^18F]-FAHA using an […] (SAHA). Each animal was given SAHA (50 mg/kg), intraperitoneally 1 hour prior to injection of the [^18F]-FAHA.
In Table 6, “baseline” refers to brain uptake of FAHA without blocking by SAHA.

With `CC(C)(C)OC(=O)N[C@@H](CCCCN)C(=O)O.O=C(O)C(F)(F)F` [BLT, Boc-lysine trifluoroacetic acid], the “toxicity (weight, behavior, blood counts, hepatic and kidney functions, histology)” value in data set [1] is on record as “no indication of significant toxicity was observed”. The “19F MRS of BLT as indicator of HDAC inhibition” value in data set [2] (PC3 tumors, SAHA 50 mg/kg daily i.p., days 0, 2, 7, 100 mg/kg BLT i.p.) was “detects HDAC inhibition prior to effect on tumor size”. Further, the “decrease in tumor BLT levels” value in data set [3] (first 50 min following BLT injection i.p., PC-3 tumor, 19F MRS) was approximately 25%.
As for `O=C(CCCCCCC(=O)Nc1ccccc1)NO` [SAHA, suberoylanilide hydroxamic acid, reference compound], in data set [4], the “effect on uptake of [18F]-FAHA inside tumor” value is recorded as “significantly inhibited”. In addition, the “phosphomonoesters and choline-containing metabolites (31P MRS and 1H MRS)” value in data set [2] (PC3 tumors following SAHA treatment 50 mg/kg daily i.p.) is recorded as “transient increase”. Also, the tumor growth entry in data set [3] (50 mg/kg SAHA in DMSO daily i.p., PC-3 tumor, preliminary data) is recorded as “inhibition of tumor growth”. In data set [3] (1 week of 50 mg/kg SAHA daily i.p. vs DMSO control and pre-treatment), the “BLT levels in the tumor in vivo (19F MRS, normalized to tumor size)” value is reported as “higher”. Further, the “effect on uptake of [18F]-FAHA inside brain” value in data set [5] is recorded as “significantly inhibited”.
